Test results as given in ChEMBL document CHEMBL3885861, “Open TG-GATES”.

Organism: Rattus norvegicus
Test: Open TG-GATES - Regimen: Single
Format: toxicity, organism-based, Sprague-Dawley
Design: regimen Single, gender Male, age 6 weeks
Conditions: in vivo, po, 0 mg/kg, route gavage, dose level Control; for APTT / Bas / Eos / Fbg / Hb / Ht / Lym / MCH / MCHC / MCV / Mono / Neu / PT / Plat / RBC / Ret / WBC: tissue Blood; for KIDNEY_L / KIDNEY_R / KIDNEY_TOTAL: tissue Kidney; for LIVER: tissue Liver

CC(=O)N1CCN(c2ccc(OCC3COC(Cn4ccnc4)(c4ccc(Cl)cc4Cl)O3)cc2)CC1 (stereo not given) [KETOCONAZOLE]
TERMINAL_BW (3 h): 204 g | APTT (3 h): 20.5 s | Bas (3 h): 0% | Eos (3 h): 0.8% | Fbg (3 h): 282.4 mg/dL | Hb (3 h): 12.8 g/dL | Ht (3 h): 38.4% | Lym (3 h): 76.4% | MCH (3 h): 21.5 pg | MCHC (3 h): 33.4% | MCV (3 h): 64.4 fL | Mono (3 h): 1.6% | Neu (3 h): 19.8% | PT (3 h): 16.9 s | Plat (3 h): 117 x10_4/uL | RBC (3 h): 596.2 x10_4/ul | Ret (3 h): 8.8% | WBC (3 h): 73.4 x10_2/uL | KIDNEY_L (3 h): 0.9 g | KIDNEY_R (3 h): 0.9 g | KIDNEY_TOTAL (3 h): 1.9 g | LIVER (3 h): 9.8 g | ALP (3 h, tissue Plasma): 1856.6 IU/L | AST (3 h, tissue Plasma): 76.2 IU/L | BUN (3 h, tissue Plasma): 13.2 mg/dL | CRE (3 h, tissue Plasma): 0.2 mg/dL | Ca (3 h, tissue Plasma): 11 mg/dL | Cl (3 h, tissue Plasma): 104.8 meq/L | DBIL (3 h, tissue Plasma): 0.004 mg/dL | GLC (3 h, tissue Plasma): 175.4 mg/dL | IP (3 h, tissue Plasma): 7.9 mg/dL | LDH (3 h, tissue Plasma): 167.6 IU/L | Na (3 h, tissue Plasma): 141.8 meq/L | PL (3 h, tissue Plasma): 135 mg/dL | RALB (3 h, tissue Plasma): 2.9 g/dL | TBIL (3 h, tissue Plasma): 0.016 mg/dL | TC (3 h, tissue Plasma): 74.8 mg/dL | TG (3 h, tissue Plasma): 63.2 mg/dL | TP (3 h, tissue Plasma): 5.4 g/dL | gamma-GTP (3 h, tissue Plasma): 1 IU/L | TERMINAL_BW (6 h): 204.2 g | APTT (6 h): 21.3 s | Bas (6 h): 0% | Eos (6 h): 0.8% | Fbg (6 h): 293.6 mg/dL | Hb (6 h): 13.2 g/dL | Ht (6 h): 39.7% | Lym (6 h): 83.2% | MCH (6 h): 21.5 pg | MCHC (6 h): 33.2% | MCV (6 h): 64.7 fL | Mono (6 h): 1.8% | Neu (6 h): 13.4% | PT (6 h): 16.9 s | Plat (6 h): 122.1 x10_4/uL | RBC (6 h): 613.4 x10_4/ul | Ret (6 h): 8.4% | WBC (6 h): 78.2 x10_2/uL | KIDNEY_L (6 h): 1 g | KIDNEY_R (6 h): 1 g | KIDNEY_TOTAL (6 h): 1.9 g | LIVER (6 h): 9.1 g | ALP (6 h, tissue Plasma): 1433 IU/L | AST (6 h, tissue Plasma): 71 IU/L | BUN (6 h, tissue Plasma): 9.6 mg/dL | CRE (6 h, tissue Plasma): 0.2 mg/dL | Ca (6 h, tissue Plasma): 10.8 mg/dL | Cl (6 h, tissue Plasma): 105.6 meq/L | DBIL (6 h, tissue Plasma): 0 mg/dL | GLC (6 h, tissue Plasma): 176.8 mg/dL | IP (6 h, tissue Plasma): 8.4 mg/dL | LDH (6 h, tissue Plasma): 197.4 IU/L | Na (6 h, tissue Plasma): 141.2 meq/L | PL (6 h, tissue Plasma): 124.2 mg/dL | RALB (6 h, tissue Plasma): 2.9 g/dL | TBIL (6 h, tissue Plasma): 0.022 mg/dL | TC (6 h, tissue Plasma): 67.6 mg/dL | TG (6 h, tissue Plasma): 47.6 mg/dL | TP (6 h, tissue Plasma): 5.4 g/dL | gamma-GTP (6 h, tissue Plasma): 1 IU/L | TERMINAL_BW (9 h): 201.8 g | APTT (9 h): 21.3 s | Bas (9 h): 0% | Eos (9 h): 1.2% | Fbg (9 h): 294.4 mg/dL | Hb (9 h): 13 g/dL | Ht (9 h): 38.9% | Lym (9 h): 75% | MCH (9 h): 21.1 pg | MCHC (9 h): 33.3% | MCV (9 h): 63.3 fL | Mono (9 h): 1.8% | Neu (9 h): 21.4% | PT (9 h): 16.4 s | Plat (9 h): 138.7 x10_4/uL | RBC (9 h): 615.6 x10_4/ul | Ret (9 h): 7.7% | WBC (9 h): 69.1 x10_2/uL | KIDNEY_L (9 h): 1 g | KIDNEY_R (9 h): 1 g | KIDNEY_TOTAL (9 h): 1.9 g | LIVER (9 h): 8.6 g | ALP (9 h, tissue Plasma): 1580.4 IU/L | AST (9 h, tissue Plasma): 75 IU/L | BUN (9 h, tissue Plasma): 10.2 mg/dL | CRE (9 h, tissue Plasma): 0.2 mg/dL | Ca (9 h, tissue Plasma): 10.4 mg/dL | Cl (9 h, tissue Plasma): 106 meq/L | DBIL (9 h, tissue Plasma): 0.008 mg/dL | GLC (9 h, tissue Plasma): 180.4 mg/dL | IP (9 h, tissue Plasma): 9.5 mg/dL | LDH (9 h, tissue Plasma): 227.2 IU/L | Na (9 h, tissue Plasma): 142.2 meq/L | PL (9 h, tissue Plasma): 125.6 mg/dL | RALB (9 h, tissue Plasma): 3.1 g/dL | TBIL (9 h, tissue Plasma): 0.026 mg/dL | TC (9 h, tissue Plasma): 67.2 mg/dL | TG (9 h, tissue Plasma): 52.6 mg/dL | TP (9 h, tissue Plasma): 5.5 g/dL | gamma-GTP (9 h, tissue Plasma): 1 IU/L | TERMINAL_BW (24 h): 213.9 g | APTT (24 h): 19.8 s | Bas (24 h): 0% | Eos (24 h): 0.8% | Fbg (24 h): 307.2 mg/dL | Hb (24 h): 13.3 g/dL | Ht (24 h): 38.9% | Lym (24 h): 77.6% | MCH (24 h): 21.8 pg | MCHC (24 h): 34.2% | MCV (24 h): 63.9 fL | Mono (24 h): 2% | Neu (24 h): 19% | PT (24 h): 16.7 s | Plat (24 h): 117.4 x10_4/uL | RBC (24 h): 609 x10_4/ul | Ret (24 h): 7.5% | WBC (24 h): 70.3 x10_2/uL | KIDNEY_L (24 h): 1 g | KIDNEY_R (24 h): 1 g | KIDNEY_TOTAL (24 h): 2 g | LIVER (24 h): 10.4 g | ALP (24 h, tissue Plasma): 1980.8 IU/L | ALT (24 h, tissue Plasma): 44 IU/L | AST (24 h, tissue Plasma): 73.2 IU/L | BUN (24 h, tissue Plasma): 16.4 mg/dL | CRE (24 h, tissue Plasma): 0.2 mg/dL | Ca (24 h, tissue Plasma): 10.7 mg/dL | Cl (24 h, tissue Plasma): 107.2 meq/L | DBIL (24 h, tissue Plasma): 0 mg/dL | GLC (24 h, tissue Plasma): 185.6 mg/dL | IP (24 h, tissue Plasma): 6.5 mg/dL | LDH (24 h, tissue Plasma): 211.2 IU/L | Na (24 h, tissue Plasma): 142.2 meq/L | PL (24 h, tissue Plasma): 147 mg/dL | RALB (24 h, tissue Plasma): 3.1 g/dL | TBIL (24 h, tissue Plasma): 0.002 mg/dL | TC (24 h, tissue Plasma): 76.6 mg/dL | TG (24 h, tissue Plasma): 107.6 mg/dL | TP (24 h, tissue Plasma): 5.6 g/dL
